Experimental data published in PubChem BioAssay (NCI).
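Method: 48-hour compound exposure of cells in 96-well plates, five concentrations, linear interpolation of endpoints. Abbreviation: GI50, concentration required for 50% inhibition of growth. TGI marks complete inhibition of growth.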

Tests used:
Assay in all cases: NCI-60 cell line screen, 48 h
CCRF-CEM leukemia = system: CCRF-CEM leukemia
COLO 205 colon = system: COLO 205 colon
IGROV1 ovarian = system: IGROV1 ovarian
MOLT-4 leukemia = system: MOLT-4 leukemia
NCI-H23 lung = system: NCI-H23 lung
NCI-H460 lung = system: NCI-H460 lung
RXF 393 renal = system: RXF 393 renal
SF-539 CNS = system: SF-539 CNS
SK-MEL-5 melanoma = system: SK-MEL-5 melanoma
UACC-257 melanoma = system: UACC-257 melanoma

| SMILES | TGI (CCRF-CEM leukemia) [µM] | TGI (COLO 205 colon) [µM] | TGI (IGROV1 ovarian) [µM] | TGI (MOLT-4 leukemia) [µM] | TGI (NCI-H23 lung) [µM] | TGI (NCI-H460 lung) [µM] | TGI (RXF 393 renal) [µM] | TGI (SF-539 CNS) [µM] | TGI (SK-MEL-5 melanoma) [µM] | TGI (UACC-257 melanoma) [µM] | GI50 (COLO 205 colon) [µM] | GI50 (MOLT-4 leukemia) [µM] | GI50 (NCI-H23 lung) [µM] | GI50 (NCI-H460 lung) [µM] | GI50 (RXF 393 renal) [µM] | GI50 (SK-MEL-5 melanoma) [µM] | GI50 (UACC-257 melanoma) [µM] | GI50 (CCRF-CEM leukemia) [µM] | GI50 (IGROV1 ovarian) [µM] | GI50 (SF-539 CNS) [µM] |
| --- | --- | --- | --- | --- | --- | --- | --- | --- | --- | --- | --- | --- | --- | --- | --- | --- | --- | --- | --- | --- |
| CC1CC(c2ccc([N+](=O)[O-])cc2)=Nc2ccccc2S1=O (configuration not stated) | 42.2 | 33.5 | 31.8 | > 100 | 37.2 | 34.3 | 23.6 | 45 | 37.1 | 42.1 | – | – | – | – | – | – | – | – | – | – |
| Cc1ccc(C(=O)N/N=C(\N=Nc2ccccc2)c2ccc(N(CCC#N)CCC#N)cc2C)cc1 | > 100 | > 100 | > 100 | > 100 | > 100 | > 100 | > 100 | 39.9 | > 100 | > 100 | – | – | – | – | – | – | – | – | – | – |
| C/C=C1/C(=O)O[C@]23C=C[C@@H]4C(C(=O)OC)=CO[C@H](O[C@@H]12)[C@@H]43 | 3.56 | 3.29 | 4.88 | 3.83 | 3.51 | 32.4 | 1.29 | 7.39 | 4.2 | 2.31 | – | – | – | – | – | – | – | – | – | – |
| COc1cc2c(cc1O)N=C[C@@H]1CCC(O)N1C2=O (mixture of isomers) | 1.66 | 1.93 | 75.5 | 2.69 | 4.38 | 11.4 | 0.638 | 1.83 | 1.83 | 7.65 | – | – | – | – | – | – | – | – | – | – |
| CC(CNc1nc(Nc2ccc(Cl)c(Cl)c2)nc(C(Cl)(Cl)Cl)n1)N(C)C (configuration not stated) | – | 3.39 | – | 3.78 | 3.38 | 3.11 | 2.88 | – | 2.98 | 3.32 | 1.83 | 1.72 | 1.63 | 1.66 | 1.52 | 1.63 | 1.75 | – | – | – |
| O=C1NC(=O)C2(CCc3ccc(N(CCCl)CCCl)cc32)N1 (configuration not stated) | > 79.7 | 17.5 | 34.6 | 49.8 | 26.2 | 23.8 | 22.5 | 22.2 | 26.6 | 45.2 | – | – | – | – | – | – | – | – | – | – |
| CCc1ncc(C(C)(O)c2ccccc2)n1Cc1ccccc1 (configuration not stated) | > 100 | > 100 | > 100 | 65.1 | > 100 | > 100 | > 100 | > 100 | 40.6 | > 100 | – | – | – | – | – | – | – | – | – | – |
| COc1ccc2oc3c(ccc[n+]3C)c(=O)c2c1 | > 100 | > 100 | > 100 | – | > 100 | > 100 | > 100 | > 100 | > 100 | – | – | – | – | – | – | – | – | – | – | – |
| CC(=O)Nc1nc(C)c(-c2cc3c(c(S(C)(=O)=O)c2)C(=O)N([C@@H](C)C2CC2)C3)s1 | > 100 | > 100 | > 100 | > 100 | > 100 | > 100 | 51.6 | > 100 | 39.7 | > 100 | 34.9 | 29.3 | 31.1 | 37.1 | 14.2 | 18.8 | 37.7 | 1.18 | 27.2 | 24.2 |
